Patent US9802941B2, “Compounds and methods for inhibiting histone demethylases” (Gilead Sciences, Inc., priority 2014, dated 2017)
Where two headings read alike, the source gives them in different places.

Columns and labels:
Assay type in all cases: biochemical
KDM5B (PLU-1) = biological target: T1, KDM5B (PLU-1) (Homo sapiens, UniProt Q9UGL1); assay: Histone lysine demethylase AlphaLISA assay, KDM5B
T1 construct: BRIC; 1-809; E. coli; host or cells: E. coli
T1 sequence (Q9UGL1 1-809): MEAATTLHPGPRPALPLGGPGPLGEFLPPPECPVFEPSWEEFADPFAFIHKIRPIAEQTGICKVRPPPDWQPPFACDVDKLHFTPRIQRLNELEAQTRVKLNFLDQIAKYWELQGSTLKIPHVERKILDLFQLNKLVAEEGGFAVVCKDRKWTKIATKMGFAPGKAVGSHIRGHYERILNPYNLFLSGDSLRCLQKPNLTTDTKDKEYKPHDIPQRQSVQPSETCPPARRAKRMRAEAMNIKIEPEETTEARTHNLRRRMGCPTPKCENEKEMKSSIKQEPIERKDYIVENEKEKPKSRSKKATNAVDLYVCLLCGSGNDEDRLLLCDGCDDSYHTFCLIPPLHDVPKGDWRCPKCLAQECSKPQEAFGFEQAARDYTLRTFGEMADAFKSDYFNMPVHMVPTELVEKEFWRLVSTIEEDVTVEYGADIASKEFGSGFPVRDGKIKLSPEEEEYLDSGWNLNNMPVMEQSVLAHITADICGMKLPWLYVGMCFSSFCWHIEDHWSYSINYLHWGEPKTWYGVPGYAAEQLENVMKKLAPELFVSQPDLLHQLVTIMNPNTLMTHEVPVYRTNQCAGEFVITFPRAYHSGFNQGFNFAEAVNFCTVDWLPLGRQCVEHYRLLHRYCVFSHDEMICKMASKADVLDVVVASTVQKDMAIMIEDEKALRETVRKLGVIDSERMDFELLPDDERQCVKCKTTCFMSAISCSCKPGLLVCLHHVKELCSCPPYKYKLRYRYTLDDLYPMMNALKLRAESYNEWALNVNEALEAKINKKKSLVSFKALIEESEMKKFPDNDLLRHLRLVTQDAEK
How it was run: (§1)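 Buffer: 50 mM Hepes pH 7.4-8.0, Tween-20, 0.1% BSA, 5 μM ammonium iron(II) sulfate. Enzyme + compound (DMSO) 10 min, then substrate at RT; acceptor and streptavidin donor beads added, dark incubation, AlphaLISA read.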

KDM2B (FBXL10) = biological target: T2, KDM2B (FBXL10) (Homo sapiens, UniProt Q8NHM5); assay: Histone lysine demethylase AlphaLISA assay, KDM2B
T2 construct: KDM2B; BPS,; 1-650; Bac; purchased BPS Bioscience, US; host or cells: baculovirus system
T2 sequence (Q8NHM5 1-650): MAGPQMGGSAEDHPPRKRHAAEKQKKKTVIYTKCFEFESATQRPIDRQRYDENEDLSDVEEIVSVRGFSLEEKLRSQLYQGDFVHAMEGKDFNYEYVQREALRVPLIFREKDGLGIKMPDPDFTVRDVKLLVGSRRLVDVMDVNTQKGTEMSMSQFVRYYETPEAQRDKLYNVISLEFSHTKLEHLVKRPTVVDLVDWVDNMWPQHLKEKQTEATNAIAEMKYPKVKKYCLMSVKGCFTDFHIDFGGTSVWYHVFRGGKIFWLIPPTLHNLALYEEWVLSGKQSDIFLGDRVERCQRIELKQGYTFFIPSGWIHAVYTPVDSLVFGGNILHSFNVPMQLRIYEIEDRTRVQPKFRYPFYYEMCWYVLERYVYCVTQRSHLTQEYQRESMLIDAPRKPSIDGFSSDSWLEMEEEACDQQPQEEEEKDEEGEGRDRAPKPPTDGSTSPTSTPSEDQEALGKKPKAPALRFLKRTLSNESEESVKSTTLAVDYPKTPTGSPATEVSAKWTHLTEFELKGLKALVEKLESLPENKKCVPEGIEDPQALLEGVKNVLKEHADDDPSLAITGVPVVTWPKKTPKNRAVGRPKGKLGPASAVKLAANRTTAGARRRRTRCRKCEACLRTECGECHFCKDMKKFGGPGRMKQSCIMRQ
How it was run: as §1

PHF8 (KDM7) = biological target: T3, PHF8 (KDM7) (Homo sapiens, UniProt Q9UPP1); assay: Histone lysine demethylase AlphaLISA assay, PHF8
T3 construct: KDM7 (PHF8); BRIC; 1-1322; Bac
How it was run: as §1

KDM4C (JMJD2C) = biological target: T4, KDM4C (JMJD2C) (Homo sapiens, UniProt Q9H3R0); assay: Histone lysine demethylase AlphaLISA assay, KDM4C
T4 construct: KDM4C; BRIC, Denmark; 1-349; E. coli; host or cells: E. coli
T4 sequence (Q9H3R0 1-349): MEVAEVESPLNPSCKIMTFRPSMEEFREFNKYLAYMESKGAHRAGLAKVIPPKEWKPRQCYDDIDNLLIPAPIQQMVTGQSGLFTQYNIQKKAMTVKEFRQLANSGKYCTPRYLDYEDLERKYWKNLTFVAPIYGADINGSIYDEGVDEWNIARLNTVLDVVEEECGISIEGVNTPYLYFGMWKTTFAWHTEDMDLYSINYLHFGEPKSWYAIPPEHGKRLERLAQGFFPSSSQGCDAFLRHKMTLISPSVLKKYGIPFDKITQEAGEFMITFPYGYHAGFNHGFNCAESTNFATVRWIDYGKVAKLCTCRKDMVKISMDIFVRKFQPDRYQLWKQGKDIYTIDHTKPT
How it was run: as §1

[1] = AlphaLISA assay, read-out: HDME Inhibition KDM5B (IC50)
[2] = AlphaLISA, in vitro, read-out: HDME Inhibition KDM5B
[3] = AlphaLISA, in vitro, read-out: HDME Inhibition KDM2B
[4] = AlphaLISA, in vitro, read-out: HDME Inhibition PHF8
[5] = AlphaLISA assay, read-out: HDME Inhibition KDM4C (IC50)
[6] = AlphaLISA, in vitro, read-out: HDME Inhibition KDM4C
[7] = AlphaLISA assay, read-out: HDME Inhibition PHF8 (IC50)

SMILES	IC50 (KDM5B (PLU-1); [1])	IC50 (KDM5B (PLU-1); [2])	IC50 (KDM2B (FBXL10); [3])	IC50 (PHF8 (KDM7); [4])	IC50 (KDM4C (JMJD2C); [5])	IC50 (KDM4C (JMJD2C); [6])	IC50 (PHF8 (KDM7); [7])	IC50 (KDM5B (PLU-1))	IC50 (KDM2B (FBXL10); AlphaLISA assay, read-out: HDME Inhibition KDM2B (IC50))
Cc1cc(C(=O)O)cc(CNCc2nncn2CCCc2ccccc2)n1 [Compound 56]	> 10 µM	> 10 µM	0.482 µM	0.883 µM	> 10 µM	> 10 µM			
O=C(O)c1cc(CO)nc(CNCCc2nncn2Cc2ccc(C(F)(F)F)cc2)c1 [Compound 66, 2-(hydroxymethyl)-6-({[2-(4-{[4-(trifluoromethyl)phenyl]methyl}-4H-1,2,4-triazol-3-yl)ethyl]amino}methyl)pyridine-4-carboxylic acid]		0.943 µM	5.77 µM	> 10 µM	> 10 µM	> 10 µM	> 10 µM		
Cc1cc(C(=O)O)cc(CNCc2nnc3n2C(c2ccccc2)CNC3)n1 (stereo not drawn) [Compound 113, 2-methyl-6-{[({5-phenyl-5H,6H,7H,8H-[1,2,4]triazolo[4,3-a]pyrazin-3-yl}methyl)amino]methyl}pyridine-4-carboxylic acid]	> 10 µM	> 10 µM	2.83 µM	> 10 µM	> 10 µM	> 10 µM	> 10 µM		
Cc1cc(C(=O)O)cc(CNCc2nccn2Cc2cccc(CN)c2)n1 [Compound 48, 2-({[(1-{[3-(aminomethyl)phenyl]methyl}-1H-imidazol-2-yl)methyl]amino}methyl)-6-methylpyridine-4-carboxylic acid]	> 10 µM	> 10 µM	> 10 µM	> 10 µM	> 10 µM	> 10 µM	> 10 µM		> 10 µM
Cc1cc(C(=O)O)cc(CNCc2nccn2Cc2cccc(C#N)c2)n1 [Compound 47, 2-{[({1-[(3-cyanophenyl)methyl]-1H-imidazol-2-yl}methyl)amino]methyl}-6-methylpyridine-4-carboxylic acid]			1.26 µM	0.391 µM	> 10 µM	> 10 µM		4.08 µM	
Cc1cc(OCc2ccccc2)c(CCNCc2cc(C(=O)O)cc(CO)n2)nn1 [Compound 87, 2-[({2-[4-(benzyloxy)-6-methylpyridazin-3-yl]ethyl}amino)methyl]-6-(hydroxymethyl)pyridine-4-carboxylic acid]	> 10 µM	> 10 µM	1.7 µM	2.3 µM	> 10 µM	> 10 µM			
O=C(O)c1cc(CO)nc(CNCc2nncn2CCCc2ccccc2)c1 [Compound 78, 2-(hydroxymethyl)-6-[({[4-(3-phenylpropyl)-4H-1,2,4-triazol-3-yl]methyl}amino)methyl]pyridine-4-carboxylic acid]			0.34 µM	1.14 µM	> 10 µM	> 10 µM		0.641 µM	
Cc1cc(OCc2ccccc2)c(CCNCc2cc(C(=O)O)cc(C)n2)nn1 [Compound 82, 2-[({2-[4-(benzyloxy)-6-methylpyridazin-3-yl]ethyl)amino)methyl]-6-methylpyridine-4-carboxylic acid]	> 10 µM	> 10 µM	1.4 µM	3.32 µM	> 10 µM	> 10 µM			

More lines, now with the values ahead:

IC50 (KDM5B (PLU-1); [1])	IC50 (KDM5B (PLU-1); [2])	IC50 (KDM2B (FBXL10); [3])	IC50 (PHF8 (KDM7); [4])	IC50 (KDM4C (JMJD2C); [5])	IC50 (KDM4C (JMJD2C); [6])	IC50 (PHF8 (KDM7); [7])	IC50 (KDM5B (PLU-1))	IC50 (KDM2B (FBXL10); AlphaLISA assay, read-out: HDME Inhibition KDM2B (IC50))	SMILES
> 10 µM	> 10 µM	0.379 µM	1.09 µM	> 10 µM	> 10 µM				CC(O)c1nnc(CNCc2cc(C(=O)O)cc(CO)n2)n1Cc1ccc(F)cc1 (stereo not drawn) [Compound 77, 2-{[({4-[(4-fluorophenyl)methyl]-5-(1-hydroxyethyl)-4H-1,2,4-triazol-3-yl}methyl)amino]methyl}-6-(hydroxymethyl)pyridine-4-carboxylic acid]
> 10 µM	> 10 µM	2.27 µM	2.28 µM	> 10 µM	> 10 µM				Cc1cc(C(=O)O)cc(CNCc2nnc(CCN(C)C)n2Cc2ccc(F)cc2)n1 [Compound 46, 2-{[({5-[2-(dimethylamino)ethyl]-4-[(4-fluorophenyl)methyl]-4H-1,2,4-triazol-3-yl}methyl)amino]methyl}-6-methylpyridine-4-carboxylic acid]
> 10 µM	> 10 µM	1.66 µM	6.56 µM	> 10 µM	> 10 µM				CCn1cnc2cc(Cn3cnnc3CNCc3cc(C(=O)O)cc(C)n3)ccc21 [Compound 41, 2-{[({4-[(1-ethyl-1H-1,3-benzodiazol-5-yl)methyl]-4H-1,2,4-triazol-3-yl}methyl)amino]methyl}-6-methylpyridine-4-carboxylic acid]
> 10 µM	> 10 µM	0.333 µM	1.4 µM	> 10 µM	> 10 µM				Cc1cc(C(=O)O)cc(CNCc2ncc(C(C)O)n2Cc2ccc(F)cc2)n1 (stereo not drawn) [Compound 63, 2-{[({1-[(4-fluorophenyl)methyl]-5-(1-hydroxyethyl)-1H-imidazol-2-yl}methyl)amino]methyl}-6-methylpyridine-4-carboxylic acid]
		0.823 µM	5.1 µM	> 10 µM	> 10 µM		1.07 µM		O=Cc1cn(Cc2ccc(F)cc2)c(CNCc2cc(C(=O)O)cc(CO)n2)n1 [Compound 111, 2-{[({1-[(4-fluorophenyl)methyl]-4-formyl-1H-imidazol-2-yl}methyl)amino]methyl}-6-(hydroxymethyl)pyridine-4-carboxylic acid]
> 10 µM	> 10 µM	0.461 µM	1.86 µM	> 10 µM	> 10 µM				Cc1cc(C(=O)O)cc(CNCc2nnc(C(C)O)n2Cc2ccc(F)cc2)n1 (stereo not drawn) [Compound 85, 2-{[({4-[(4-fluorophenyl)methyl]-5-(1-hydroxyethyl)-4H-1,2,4-triazol-3-yl}methyl)amino]methyl}-6-methylpyridine-4-carboxylic acid]
> 10 µM	> 10 µM	0.104 µM	0.246 µM	> 10 µM	> 10 µM				CCc1nnc(CNCc2cc(C(=O)O)cc(CO)n2)n1Cc1ccc(F)cc1 [Compound 64, 2-{[({5-ethyl-4-[(4-Fluorophenyl)methyl]-4H-1,2,4-triazol-3-yl}methyl)amino]methyl}-6-(hydroxymethyl)pyridine-4-carboxylic acid]
